Experimental data taken from patent US20020111272A1, “Glyphosate-induced male sterility in dicots” (priority 2000, published 2002).

Experiments:
[1] = system: glyphosate-tolerant variety (RR1445) of Coker 312; test: Glyphosate-induced male sterility in cotton, field plots scored for fertility (Example 1); type: in vivo
Excerpt: A test was designed to determine whether glyphosate-induced male sterility in cotton could be reliably maintained throughout the blooming period.
The plant material used was a glyphosate-tolerant variety (RR1445) of Coker 312 obtained from Monsanto Co. (St. Louis, Mo.). Seed was planted in 25 foot long, single row plots, with a 38 inch row spacing. The test was replicated four times with treatments applied as follows:
Treatment 1: Single spray at 30 days post planting (“30 DPP”);
Treatment 2: Multiple sprays beginning at 30 DPP and repeating every 10 days (“30 DPP+10 D”)
Treatment 3: Multiple sprays beginning at 30 DPP and repeating every 20 days (“30 DPP+20 D”)
Treatment 4: Unsprayed control.
The sprays consisted of a single 2% solution of Roundup® brand glyphosate (41% formulation), which was equivalent to 20 ml/l, or 22/3 oz/gal. This solution was used in all spray treatments, and was applied to runoff. […] At the onset of bloom (mid-July) and through mid September, each plot was scored for fertility approximately every 5 days as follows:
0=Complete sterility; no pollen present upon rubbing anthers between fingers;
1=Practically no pollen present upon rubbing anthers, no self pollination possible because anthers never shed pollen, male-sterile for all practical purposes;
2=Very little pollen upon rubbing anthers, no natural pollen shed, no self pollination possible, male sterile for all practical purposes;
3=Some pollen present when anthers rubbed, a minimal amount of natural pollen shed on lower anthers, a very small amount of self pollination possible with insect activity;
4=Anthers shed pollen in sufficient amounts at all anther levels to self pollinate;
5=Anthers shed pollen in normal amounts from all anthers.

Paymaster 145 RR = test: Crossing block with hand pollination, boll and seed set (Example 2); type: in vivo, cotton; settings: glyphosate applied as in Example 1 (about 64 oz/acre); end of season
Excerpt: A small isolated crossing block was planted with variety Paymaster 145 RR. Glyphosate was applied as indicated in the previous Example. The intention was to maintain male sterility and to cross pollinate (manually) with pollen from another Paymaster variety to produce actual F1 hybrid seed.

[2] = system: PM 2200 RR and PM 2326 RR; test: Spray rate test, fertility scores and seed set after hand pollination (Example 3); type: in vivo, cotton
Experimental: A further test was conducted using the varieties PM 2200 RR and PM 2326 RR, in which 4 levels of glyphosate spray rates were applied at 14 day intervals, beginning at 31 days post planting. The rates used were: 0, 16, 24 and 32 ounces/acre of glyphosate. Fertility scores were taken at roughly 2 day intervals during the season to follow male sterility development. At the same time hand pollination was done on 10 flowers in each treatment (all 3 replicates), also at 2 day intervals for a total of “10 crossing days”. This was to determine the amount of seed set under the various spray regimes and thus infer the degree of female sterility, if any, being induced by the glyphosate applications.

DP 5414 RR = test: Effect of glyphosate on soybean yield, male sterility assessed from yield (Example 4); type: in vivo
Excerpt: (§1) The glyphosate-tolerant soybean varieties DP 7220 RR, DP 6299 RR and DP 5414 RR were planted in replicated four row plots 18 feet in length, at planting and during growing season, end trimmed to 14.5 feet just prior to harvest to remove end effects in yield. Glyphosate (RoundUp® Ultra Max, Monsanto Co.) was applied starting 14 days post planting, with 5 applications at approximately 10 day intervals thereafter. The sprays consisted of a single 2% solution of the RoundUp® Ultra Max commercial glyphosate product, which is a 50% solution of glyphosate. This is equivalent to 16.25 ml/l or 2.17 oz/gal. This solution was used for all treatments, and was applied to runoff. Four rates of application were used: 0 ounces/acre (oz/acre) (control), 13.5 oz/acre (equivalent to the 16 oz/acre of the 41% formulation used in Examples 1-3), 26 oz/acre (equivalent to the 32 oz/acre used for Examples 1-3) and 52 oz/acre (equivalent to the 64 oz/acre used for Examples 1-3).
(§2) The two middle rows of each plot were harvested for yield, calculated in bushels/acre (bu/acre) based on this land area. Statistical significance was determined using a standard single-tailed T-test. Male sterility was assessed based on the yield, because soybean is a […] flower (the flowers never open until after fertilization), and thus is almost completely self-pollinated. A statistically significant reduction in the yield would therefore correlate with a decreased rate of fertilization. Pollen production was not assessed in this experiment, but based on the observations made in cotton (Examples 1-3), it is reasonable to conclude that the decrease in fertilization rate in soybeans was due to a decrease in viable pollen production.

DP 6299 RR = test: as above; type: in vivo
Excerpt: as §1, §2

DP 7220 RR = test: as above; type: in vivo
Excerpt: as §1, §2

O=C(O)CNCP(=O)(O)O [glyphosate]
Fertility score ([1]; 30 DPP (single spray at 30 days post planting), 2% Roundup about 64 oz/acre, 58 days post planting, score 0 complete sterility to 5 normal pollen, practical sterility 2.75 or below): 1.00 | Fertility score ([1]; 30 DPP + 10 D (sprays from 30 DPP every 10 days), 2% Roundup about 64 oz/acre, 58 days post planting): 1.00 | Fertility score ([1]; 30 DPP + 10 D, 62 days post planting): 1.00 | Fertility score ([1]; 30 DPP + 10 D, 66 days post planting): 1.00 | Fertility score ([1]; 30 DPP + 10 D, 70 days post planting): 1.00 | Fertility score ([1]; 30 DPP + 10 D, 75 days post planting): 1.00 | Fertility score ([1]; 30 DPP + 10 D, 80 days post planting): 1.25 | Fertility score ([1]; 30 DPP + 10 D, 85 days post planting): 1.25 | Fertility score ([1]; 30 DPP + 10 D, 90 days post planting): 1.25 | Fertility score ([1]; 30 DPP + 10 D, 104 days post planting): 1.25 | Fertility score ([1]; 30 DPP + 20 D (sprays from 30 DPP every 20 days), 2% Roundup about 64 oz/acre, 58 days post planting): 1.00 | Fertility score ([1]; 30 DPP + 20 D, 62 days post planting): 1.75 | Fertility score ([1]; 30 DPP + 20 D, 66 days post planting): 2.5 | Fertility score ([1]; 30 DPP + 20 D, 70 days post planting): 2.75 | Fertility score ([1]; 30 DPP + 20 D, 75 days post planting): 2.5 | Fertility score ([1]; 30 DPP + 20 D, 80 days post planting): 1.75 | Fertility score ([1]; 30 DPP + 20 D, 85 days post planting): 1.75 | Fertility score ([1]; 30 DPP + 20 D, 90 days post planting): 1.50 | Fertility score ([1]; 30 DPP + 20 D, 104 days post planting): 1.50 | Fertility score ([1]; 30 DPP single spray, 62 days post planting): 3.00 | Fertility score ([1]; 30 DPP single spray, 66 days post planting): 3.75 | Fertility score ([1]; 30 DPP single spray, 70 days post planting): 4.00 | Fertility score ([1]; 30 DPP single spray, 75 days post planting): 4.25 | Fertility score ([1]; 30 DPP single spray, 80 days post planting): 4.50 | Fertility score ([1]; 30 DPP single spray, 85 days post planting): 5.00 | Fertility score ([1]; 30 DPP single spray, 90 days post planting): 5.00 | Fertility score ([1]; 30 DPP single spray, 104 days post planting): 5.00 | Adverse effects of the multiple sprays (other than male sterility) ([1]; throughout the season, about 64 oz/acre): No adverse effects | Induction of male sterility ([1]; treatment 2 (30 DPP+10 D), about 64 oz/acre): adequate to induce sterility | Induction of male sterility ([1]; treatment 3 (30 DPP+20 D), about 64 oz/acre): adequate to induce sterility | Boll set of hand pollinated flowers (female sterility) (Paymaster 145 RR): practically all hand pollinated flowers had not set viable bolls | Female sterility ([2]; 24 oz/acre rate at roughly 10 day intervals (best effect)): minimal or no female sterility | Male sterility ([2]; all rates used: 16, 24 and 32 ounces/acre, 14 day intervals from 31 days post planting): produced male sterility | Boll and hybrid seed set after hand pollination ([2]; all the spray rates tested (16, 24, 32 oz/acre)): Full, mature bolls bearing hybrid seed were produced | Level of male sterility induced ([2]; both varieties PM 2200 RR and PM 2326 RR, small varietal difference): adequate for hybrid production | Male sterility (assessed from yield) (DP 5414 RR; 13.5 to 52 oz/acre): complete male-sterility was not achieved | Average Difference from Control (DP 5414 RR; application rate 13.5 oz./acre): 2.05 oz./acre | Yield (DP 5414 RR; application rate 13.5 oz./acre): 32.53 bu/acre | Average Difference from Control (DP 5414 RR; application rate 26 oz./acre): 8.30 oz./acre | Yield (DP 5414 RR; application rate 26 oz./acre): 26.28 bu/acre | Average Difference from Control (DP 5414 RR; application rate 52 oz./acre): 8.65 oz./acre | Yield (DP 5414 RR; application rate 52 oz./acre): 25.93 bu/acre | Male sterility (assessed from yield) (DP 6299 RR; 13.5 to 52 oz/acre): complete male-sterility was not achieved | Average Difference from Control (DP 6299 RR; application rate 13.5 oz./acre): 1.23 oz./acre | Yield (DP 6299 RR; application rate 13.5 oz./acre): 36.45 bu/acre | Average Difference from Control (DP 6299 RR; application rate 26 oz./acre): 9.65 oz./acre | Yield (DP 6299 RR; application rate 26 oz./acre): 28.03 bu/acre | Average Difference from Control (DP 6299 RR; application rate 52 oz./acre): 10.18 oz./acre | Yield (DP 6299 RR; application rate 52 oz./acre): 27.50 bu/acre | Male sterility (assessed from yield) (DP 7220 RR; 13.5 to 52 oz/acre): complete male-sterility was not achieved | Average Difference from Control (DP 7220 RR; application rate 13.5 oz./acre): 4.05 oz./acre | Yield (DP 7220 RR; application rate 13.5 oz./acre): 35.95 bu/acre | Average Difference from Control (DP 7220 RR; application rate 26 oz./acre): 8.27 oz./acre | Yield (DP 7220 RR; application rate 26 oz./acre): 31.73 bu/acre | Average Difference from Control (DP 7220 RR; application rate 52 oz./acre): 11.55 oz./acre | Yield (DP 7220 RR; application rate 52 oz./acre): 28.45 bu/acre
